“And” between values parts separate entries of the source, which are not always exact repeats. Equal values may be shown once.
System: S. Typhimurium GFP reporter counter-screen, fluorescence, 4 h
Assay: S. Typhimurium nonspecific reporter signal inhibition – Salmonella Typhimurium, GFP fluorescence, counter-screen for PhoP regulon inhibitor project, dose response (AID 2401);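 also: S. typhimurium with Mg-insensitive nmpC-GFP reporter grown at 10 µM Mg2+; drop in reporter fluorescence reflects general culture growth inhibition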

With `O=C(N/N=C/c1cc(Cl)ccc1O)c1cccnc1` the IC50 was 25.6 µM.
`Oc1c(CN2CCOCC2)cc(COCc2ccccc2)c2cccnc12` showed an IC50 of 69.5 µM.
In the case of `CCCCOc1ccc(CSC(=N)N)cc1[N+](=O)[O-]`, the IC50 is reported as 115 µM.
With `Nc1c(Cl)ncnc1N/N=C/c1ccccn1` the IC50 was 25.5 µM.
`O=Nc1ccc(O)c2ncccc12` gave an IC50 of 61.3 µM.
In the case of `CN1CCN(CCCN2c3ccccc3Sc3ccc(Cl)cc32)CC1`, the IC50 is reported as 51 µM.
`O=CN/N=C/c1c(O)ccc2ccccc12` showed an IC50 of 37.2 µM.
`O=C1c2ccccc2C(=O)c2[nH]c(=O)[nH]c21` showed an IC50 of 6.67 µM.
`CN(C)c1ccc(O)c2c1CC1CC3[C@@H](N(C)C)C(=O)C(C(N)=O)=C(O)[C@]3(O)C(=O)C1=C2O` (some centres not stated) was tested, and the IC50 was 4.76 µM.
`COc1cccc(/C=N\NC(=O)Cn2nnc3ccccc32)c1O` was tested, and the IC50 was 57.6 µM.
`CCCCCCOC(=O)C[N+](C)(C)CCOC1CC2CCC1(C)C2(C)C` (configuration not stated) was tested, and the IC50 was 31.9 µM.
In the case of `CC(=O)NC(c1ccc(C)cc1)c1cc([N+](=O)[O-])c2cccnc2c1O` (configuration not stated), the IC50 is reported as 33.5 µM.
`CC[C@H]1OC(=O)C[C@@H](O)[C@H](C)[C@@H](O[C@@H]2O[C@H](C)C[C@H](N(C)C)[C@H]2O)[C@@H](CC=O)C[C@@H](C)C(=O)C=C[C@]2(C)O[C@H]2[C@@H]1C` showed an IC50 of 14.2 µM.
`S=c1nc(C2CCCCC2)[nH][nH]1` was tested, and the IC50 was 99 µM.
`Nc1nonc1C(=O)N/N=C/c1cc(Br)ccc1O` gave an IC50 of 9.03 µM.
Work on `C/C(CC(=O)Nc1ccc(Cl)c(C(F)(F)F)c1)=N\NC(=O)c1ccccc1O` yielded an IC50 of 117 µM.
`CC[C@H]1OC(=O)[C@H](C)[C@@H](O[C@H]2C[C@@](C)(OC)[C@@H](O)[C@H](C)O2)[C@H](C)[C@@H](O[C@@H]2O[C@H](C)C[C@H](N(C)C)[C@H]2O)[C@](C)(O)C[C@@H](C)[C@@H]2N[C@@H](COCCOC)O[C@H]([C@H]2C)[C@]1(C)O` showed an IC50 of 25.1 µM.
`Oc1c(CN2CCc3ccccc3C2)cc(Cl)c2cccnc12` gave an IC50 of 17.4 µM.
Work on `Cc1[nH]n(-c2ccccc2)c(=O)c1/C=N/Nc1nncc(-c2ccccc2)n1` yielded an IC50 of 19.1 µM.
For `Nc1ncn(C2O[C@H](CO)[C@@H](O)[C@H]2O)c(=O)n1` (some centres not stated), the IC50 was 30.8 µM.
Compound `O=c1[nH]cc(F)c(=O)[nH]1` has an IC50 of 20.5 µM.
`O=C(CN1CCCC1)N/N=C/c1c(O)ccc2ccccc12` gave an IC50 of 29.9 µM.
For `O=C(NCCNc1ccc([N+](=O)[O-])cc1C(F)(F)F)c1cccc(F)c1`, the IC50 was 106 µM.
Work on `COc1c(N2CCNC(C)C2)c(F)cc2c(=O)c(C(=O)O)cn(C3CC3)c12` (configuration not stated) yielded an IC50 of 1.05 µM.
`NC1=NC[C@@H](Cc2ccc(O)cc2)N1CCCCC1CCCCC1` showed an IC50 of 32.9 µM.
`C=C1c2cccc(O)c2C(O)=C2C(=O)[C@]3(O)C(O)=C(C(N)=O)C(=O)[C@@H](N(C)C)[C@@H]3[C@@H](O)[C@H]12` was tested, and the IC50 was 0.67 µM.
Work on `O=C(Cc1c[nH]c2ccccc12)N/N=C/c1ccccc1O` yielded an IC50 of 89.3 µM.
Work on `CNC[C@H](Cc1ccccc1)NC[C@@H](Cc1cccc2ccccc12)NCCc1ccc(C)cc1` yielded an IC50 of 26.2 µM.
For `CCCCCNCC(=O)Nc1cccc(C(=O)Nc2cccc(C(F)(F)F)c2)c1`, the IC50 was 83.2 µM.
`NC1CCN(c2nc3c(cc2F)c(=O)c(C(=O)O)cn3-c2ccc(F)cc2F)C1` (configuration not stated) was tested, and the IC50 was 1.13 µM.
Compound `O=C(N/N=C/c1ccc([N+](=O)[O-])o1)c1ccc(O)cc1` has an IC50 of 36.8 µM.
Work on `CCN(CC)CCOc1ccc2c(c1)C(=NNC(=O)c1ccccn1)c1cc(OCCN(CC)CC)ccc1-2` yielded an IC50 of 38.1 µM.
`CN(C)S(=O)(=O)c1cccc(NC(=S)N/N=C/c2cc(Br)ccc2O)c1` was tested, and the IC50 was 32.4 µM.
In the case of `Nc1ncn([C@@H]2O[C@H](CO)[C@@H](O)[C@H]2O)c(=O)n1`, the IC50 is reported as 33.6 µM.
Compound `Cc1ccnc(NC(c2cccnc2)c2ccc3cccnc3c2O)c1` (configuration not stated) has an IC50 of 22.3 µM.
Compound `O=C(Nc1cccc(N=Cc2cc(Br)cc(Br)c2O)c1)c1ccco1` has an IC50 of 104 µM.
`CCCCCCCCn1c2c(c(=N)c3c1CCC3)CCCC2` was tested, and the IC50 was 70.9 µM.
`C=CCc1cccc(C2Nc3ccccc3C(=O)N2O)c1O` (configuration not stated) was tested, and the IC50 was 80.9 µM.
For `Cc1cc(C(C)(C)CC(C)(C)C)ccc1OCCOCC[N+](C)(C)Cc1ccccc1`, the IC50 was 26.9 µM.
`CCCCCCCCCCOC(=O)Cn1c(COc2ccc(Cl)cc2)[n+](C)c2ccccc21` showed an IC50 of 19.5 µM.
`CCCc1nnc(NC(=O)c2cn(CC)c3cc(N4CCN(C)CC4)c(F)cc3c2=O)s1` was tested, and the IC50 was 117 µM.
For `CC1CCCC(C)N1/N=C/c1c[nH]c2ccc(Br)cc12` (configuration not stated), the IC50 was 88.9 µM.
Compound `Nc1nonc1-n1nnc(C(=O)N/N=C/c2cc(Br)ccc2O)c1CSC1=NCCS1` has an IC50 of 19.3 µM.
With `Cc1cc(C(=O)N/N=C/c2cc(Br)cc([N+](=O)[O-])c2O)c2ccccc2n1` the IC50 was 109 µM.
In the case of `O=C(N/N=C\c1cccc([N+](=O)[O-])c1O)C1COc2ccccc2O1` (configuration not stated), the IC50 is reported as 54.6 µM.
In the case of `O=C(N/N=C/c1cc2c3c(c1O)CCCN3CCC2)c1ccccc1O`, the IC50 is reported as 95.3 µM.
Compound `O=C(N/N=C/c1cccc([N+](=O)[O-])c1O)c1cccs1` has an IC50 of 16.8 µM.
`NC1=NC[C@H](c2ccccc2)N1CCCCC1CCCCC1` showed an IC50 of 52.2 µM.
In the case of `Cc1ccc(Nc2c3c(nc4ccccc24)CCC3)cc1`, the IC50 is reported as 122 µM.
For `O=C(C[n+]1cc(-c2ccc(Cl)c(Cl)c2)n2c1CCC2)N1c2ccccc2Sc2ccccc21`, the IC50 was 49 µM.
For `CN1CCN(c2c(F)cc3c(=O)c(C(=O)O)cn4c3c2SCC4)CC1`, the IC50 was 8.06 µM and 8.09 µM.
In the case of `CN1CCN(C(c2ccccn2)c2cc(Cl)c3cccnc3c2O)CC1` (configuration not stated), the IC50 is reported as 43.9 µM.
For `COc1c(N2CCN[C@H](C)C2)c(F)cc2c(=O)c(C(=O)O)cn(C3CC3)c12`, the IC50 was 0.78 µM.
`CCn1cc(C(=O)O)c(=O)c2cc(F)c(N3CCN(C(=S)Nc4ccccc4OC)CC3)cc21` gave an IC50 of 38.8 µM.
With `Cc1ccc(NC(=O)NCC2CCN(Cc3cccc(Cl)c3)CC2)cc1Cl` the IC50 was 70.2 µM.
In the case of `CC[n+]1c(/C=C/N(C)c2ccccc2)n(-c2ccccc2)c2ccc(-c3nc4ccccc4s3)cc21`, the IC50 is reported as 19.4 µM.
In the case of `COc1ccc(C(C[N+](=O)[O-])c2c(-c3ccccc3)cc3ccccn23)cc1` (configuration not stated), the IC50 is reported as 29.9 µM.
`O=C(c1ccc(F)cc1)C(CN1CCOCC1)c1ccccc1` (configuration not stated) gave an IC50 of 144 µM.
`Oc1ccc(N=Cc2ccc(O)c(O)c2)cc1` showed an IC50 of 118 µM.
`Cc1cccc(Nc2c3c(nc4ccccc24)CCC3)c1` was tested, and the IC50 was 109 µM.
Work on `Cc1ccc(C(C[N+](=O)[O-])c2c(-c3ccccc3O)[nH][nH]c2=O)cc1` (configuration not stated) yielded an IC50 of 14.9 µM.
`O=c1[nH][nH]c(-c2ccccc2O)c1C(C[N+](=O)[O-])c1cccc(Cl)c1` (configuration not stated) was tested, and the IC50 was 69.8 µM.
Compound `CCOc1ccc(Nc2c3ccccc3nc3ccccc23)cc1` has an IC50 of 77.3 µM.
With `c1ccc2c(c1)Sc1ccccc1N2CC1CN2CCC1CC2` (configuration not stated) the IC50 was 108 µM.
For `CCc1ccc(S(=O)(=O)/N=C2/C=C(Sc3ncn[nH]3)C(=O)c3ccccc32)cc1`, the IC50 was 76.9 µM.
In the case of `CCOC(=O)c1ccc(-c2ccc(C3Nc4ccccc4C(=O)N3O)o2)cc1` (configuration not stated), the IC50 is reported as 142 µM.
Work on `CCCCCCCCCn1c2c(c(=N)c3c1CCC3)CCCC2` yielded an IC50 of 31.3 µM.
`COc1ccccc1CNCC(O)Cn1c2ccccc2c2ccccc21` (configuration not stated) was tested, and the IC50 was 92 µM.
Work on `O=C(CSc1ccccn1)N/N=C/c1cc([N+](=O)[O-])ccc1O` yielded an IC50 of 34.9 µM.
`Cc1ccc(S(=O)(=O)Nc2cc(Cl)c(O)c3ncccc23)cc1` gave an IC50 of 29 µM.
`CCn1cc(C(=O)O)c(=O)c2cc(F)c(N3CCN(C(=O)Nc4ccccc4)CC3)cc21` showed an IC50 of 75.2 µM.
Work on `Cc1ccc(-c2c[n+](CC(=O)Nc3nc(-c4ccc(F)cc4)cs3)c3n2CCC3)cc1` yielded an IC50 of 42.3 µM.
In the case of `CCN1/C(=C/C(C)=C/c2sc3ccccc3[n+]2CC)Sc2ccccc21`, the IC50 is reported as 12.9 µM.
`COc1cc(Cc2cc(N)nc(N)n2)cc(OC)c1OC` gave an IC50 of 0.74 µM.
`CC(C)NC1=C(Cl)C(=O)c2ccccc2C1=O` showed an IC50 of 38.3 µM.
`O=C(N/N=C/c1cccs1)c1cccs1` showed an IC50 of 67.8 µM.
With `COC(=O)C1C(O)C(C)C(O)C(C)/C=C\C=C(/C)C(=O)Nc2c(C)c(OC(C)=O)c3c(c2O)C(=O)C(C)=C2OCOC(=C23)/C(C)=C/C(C)(O)C(O)C(C)C1O` (configuration not stated) the IC50 was 22.2 µM.

— PubChem BioAssay AID2401 (Southern Research Specialized Biocontainment Screening …, 2010)
